Measurements published in the NIST ThermoML archive (doi:10.1016/j.jct.2013.08.007).

Experiments:
[1] = Liquid; for mass density: Vibrating tube method; for viscosity: 101.33 kPa, Moving piston method
[2] = xn = mol fraction of the nth substance listed; conditions: Liquid; for viscosity: Moving piston method; for mass density: Vibrating tube method

CCCCO [butan-1-ol]
mass density [kg/m3], [1]
Conditions | 302.9 K | 323.1 K
100 kPa | 802 | 785.6
1010 kPa | – | 786.6
1020 kPa | 802.7 | –
2010 kPa | 803.4 | –
2020 kPa | – | 787.5
3010 kPa | 804.1 | 788.3
4000 kPa | 804.9 | 789.2
5010 kPa | 805.7 | –
5020 kPa | – | 790
6000 kPa | 806.4 | –
6020 kPa | – | 790.9
7000 kPa | – | 791.7
7020 kPa | 807.2 | –
8010 kPa | 807.9 | 792.5
9020 kPa | 808.7 | 793.3
10020 kPa | 809.4 | 794.2

[1]
Conditions | viscosity [mPa·s]
303.15 K | 2.197
323.3 K | 1.347

CCCCO [butan-1-ol] + O=C=O
[2]
Conditions | mass density, 303 K [kg/m3] | mass density, 323.1 K [kg/m3] | viscosity, 303 K [mPa·s] | viscosity, 323.1 K [mPa·s]
920 kPa, x2 = 0.047 | – | 789.3 | – | 1.143
1050 kPa, x2 = 0.07 | 808.1 | – | 1.744 | –
1920 kPa, x2 = 0.098 | – | 793.3 | – | 1
2030 kPa, x2 = 0.14 | 814.3 | – | 1.428 | –
2940 kPa, x2 = 0.151 | – | 798.4 | – | 0.828
3220 kPa, x2 = 0.217 | 822.8 | – | 1.16 | –
3990 kPa, x2 = 0.223 | – | 802 | – | 0.722
4100 kPa, x2 = 0.304 | 828.4 | – | 0.87 | –
4970 kPa, x2 = 0.384 | 835.3 | – | 0.661 | –
5100 kPa, x2 = 0.288 | – | 806.7 | – | 0.599
6250 kPa, x2 = 0.374 | – | 811 | – | 0.486

CC [ethane] + CCCCO
[2]
Conditions | mass density, 303 K [kg/m3] | mass density, 323.1 K [kg/m3] | viscosity, 303 K [mPa·s] | viscosity, 323.1 K [mPa·s]
1050 kPa, x1 = 0.097 | 776.8 | – | 1.553 | –
1140 kPa, x1 = 0.086 | – | 762.8 | – | 1.008
2050 kPa, x1 = 0.157 | – | 744.2 | – | 0.801
2080 kPa, x1 = 0.214 | 745.4 | – | 1.114 | –
3070 kPa, x1 = 0.243 | – | 718.4 | – | 0.618
3070 kPa, x1 = 0.341 | 704.9 | – | 0.668 | –
4070 kPa, x1 = 0.336 | – | 688.3 | – | 0.462
4950 kPa, x1 = 0.428 | – | 652.9 | – | 0.351
6020 kPa, x1 = 0.579 | – | 588.2 | – | 0.212

C [methane] + CCCCO
[2]
Conditions | mass density, 303 K [kg/m3] | mass density, 323.1 K [kg/m3] | viscosity, 303 K [mPa·s] | viscosity, 323.1 K [mPa·s]
1050 kPa, x1 = 0.02 | – | 782.2 | – | 1.236
1060 kPa, x1 = 0.021 | 797.6 | – | 1.994 | –
2070 kPa, x1 = 0.035 | – | 778.5 | – | 1.174
2100 kPa, x1 = 0.039 | 793.7 | – | 1.86 | –
2980 kPa, x1 = 0.048 | – | 775.5 | – | 1.131
3120 kPa, x1 = 0.056 | 789.4 | – | 1.731 | –
4030 kPa, x1 = 0.065 | – | 771.6 | – | 1.085
4080 kPa, x1 = 0.071 | 785.8 | – | 1.67 | –
5020 kPa, x1 = 0.079 | – | 767.9 | – | 1.046
5090 kPa, x1 = 0.087 | 781.8 | – | 1.612 | –
6070 kPa, x1 = 0.095 | – | 764.2 | – | 1.005
6070 kPa, x1 = 0.102 | 778.3 | – | 1.548 | –
